Values after ≈ are worked out from the molar mass of the structure shown. Read-outs that look alike come from different tables or passages of the source.
Experiments:
Sporothrix sp. = experiment: Antifungal MIC (RPMI-1640 microdilution); format: cell-based
Exserohilum sp. = experiment: Antifungal MIC (RPMI-1640 microdilution); format: cell-based
Curvularia sp. = experiment: Antifungal MIC (RPMI-1640 microdilution); format: cell-based
Streptococcus pneumoniae = experiment: Antibacterial MIC (broth microdilution); format: cell-based; settings: CA-MHB with 3% LHB
[1] = Calculation of RLTEC and MPEC50 for tafenoquine against SARS-CoV-2; settings: human, lung/whole blood; assumed to be the same as rats; read-out: Ratio of lung to whole blood concentration for humans
Experimental: (§1) Pneumocystis was used as a model organism against which to set minimum requirements for the maximum acceptable in vitro EC50 of tafenoquine against SARS-CoV-2 in vitro. Pneumocystis was selected because it is the only lung pathogen for which both in vitro and in vivo data are available for tafenoquine. The maximum lung tissue concentration [LTsscmaxrats] at the minimum dose of tafenoquine necessary to inhibit the growth of Pneumocystis in vivo in a treatment modality was calculated using relevant data derived from the scientific literature [see Table 7]. The ratio of that concentration to the EC50 against Pneumocystis in vitro RLTEC was determined [see Table 7]. The plasma steady state Cmax [Psscmaxhumans] at the approved prophylactic dose is known from the ARAKODA product insert [60 Degrees Pharmaceuticals. 2018. Product Insert for ARAKODA.]. The maximum steady state lung tissue concentration [LTsscmaxhumans] of that dose was determined using relevant metrics from the literature. The maximum permissible EC50 (“MPEC50”) was then defined by dividing the LTsscmaxhumans by the RLTEC [Table 7].
(§2) The steady state Cmax at the approved prophylactic dose is known based on prior modeling. The maximum steady state lung tissue concentration of that dose was estimated to be 389 microM [Table 7].
(§3) [Note: These calculated values provided in this example were recalculated and updated in the present application and therefore may differ from what is presented in some cross-referenced U.S. Provisional Applications.]

SARS-CoV-2 [2] = experiment: as above
Experimental: as §1, §2, §3

Pneumocystis = Pneumocystis in vitro (Bartlett et al., 1991); format: cell-based; settings: read-out: equivalent MIC in the absence of protein
Description: Therefore, the minimum inhibitory concentration in vitro is approximately 10 microgram/ml.

SARS-CoV-2 [3] = experiment: microbe, parasite or virus in culture; format: cell-based
[4] = test system: M. tuberculosis [ATCC #27294]; experiment: MIC against M. tuberculosis in 7H9 media; format: cell-based; settings: Mycobacterium tuberculosis
[5] = Maximum tolerated dose in uninfected immunosuppressed mice; format: in vivo, ICR mice
Experimental: Tafenoquine succinate powder was supplied in the form of the commercial API used to make 100 mg ARAKODA tablets [therefore it was >99.8% pure and contain no excipients]. Four dosing solutions were prepared, and the concentrations of tafenoquine succinate were adjusted based on the mean mouse weight at the start of the study in order to achieve dosing groups of 2.5, 5, 10 and 20 mg/kg tafenoquine base respectively [note that tafenoquine succinate contains 79.6% tafenoquine base].
The dosing solutions was in the form of a tafenoquine succinate suspension in the drug vehicle. A large batch [>1 liter] of the drug vehicle [0.2% v/v Tween 80 in 1% v/v methyl cellulose in sterile water] was prepared at least 96 h before the first dose was administered and kept refrigerated [4° C.]. During preparation, the batch of drug vehicle was stirred for sufficiently long to ensure a uniform composition [4 to 24 h of stirring with a magnetic stir bar may be required].
Dosing solutions were prepared no more than 72 h prior to the first dose. Tafenoquine powder was weighed out separately for each dosing solution. After weighing, tafenoquine was transferred into an appropriately sized, transparent tube [or equivalent] containing the desired volume of drug vehicle, and gently shaken to allow development of a uniform suspension without bubble formation. The tubes containing dosing solutions were stored at [4° C.] wrapped in aluminum foil until use. Prior to use, the dosing solutions were inverted gently as required to resuspend the tafenoquine and allowed to warm temperature. Use of transparent tubes allowed for visual confirmation that an even resuspension of the drug has had been achieved prior to dosing. The above resuspension procedure was conducted the first time 48 h prior to the first day of dosing to confirm there have been no preparation issues.
Mouse Strain—Outbred male ICR mice weighing ~28 grams were used. Mice were housed 5 per cage and had access to food and water ad libitum.
Immune Status—Standard neutropenic immunosuppression regimen in the PK/dose tolerability study was used, which was also used in the in vivo efficacy model. This regimen utilizes cyclophosphamide and cortisone acetate to render animals immunosuppressed prior to aerosolized inoculation. • Cyclophosphamide (25 mg/mL) was dissolved by the addition of sterile water to the vial. This was administered as a dose of 250 mg/kg two days prior to inoculation. […]
Mouse Assessment—Throughout the studies, mice were observed multiple times per day and their overall health determined. […]

**Q.** Which results are given for `COc1cc(C)c2c(Oc3cccc(C(F)(F)F)c3)c(OC)cc(NC(C)CCCN)c2n1.O=C(O)CCC(=O)O` (centres unmarked) [Tafenoquine Succinate]?
**A.** MIC50 (Sporothrix sp.; read-out: MIC 50% inhibition, isolate Sporo1): 2 µg/mL; MIC50 (Sporothrix sp.; read-out: MIC 50% inhibition, isolate Sporo2): 1 µg/mL; MIC50 (Sporothrix sp.; read-out: MIC 50% inhibition, isolate Sporo3): 2 µg/mL; MIC (Sporothrix sp.; read-out: MIC 100% inhibition, isolate Sporo1): 4 µg/mL; MIC (Sporothrix sp.; read-out: MIC 100% inhibition, isolate Sporo2): 2 µg/mL; MIC (Sporothrix sp.; read-out: MIC 100% inhibition, isolate Sporo3): 4 µg/mL; MIC50 (Exserohilum sp.; read-out: MIC 50% inhibition, isolate Exser1): 4 µg/mL; MIC (Exserohilum sp.; read-out: MIC 100% inhibition, isolate Exser1): 8 µg/mL; MIC50 (Curvularia sp.; read-out: MIC 50% inhibition, isolate Curv1): 2 µg/mL; MIC (Curvularia sp.; read-out: MIC 100% inhibition, isolate Curv1): 8 µg/mL; MIC (Streptococcus pneumoniae; Streptococcus pneumoniae, ATCC49619, isolate ATCC 49619, read-out: MIC): 16 µg/mL; MIC (Streptococcus pneumoniae; Streptococcus pneumoniae, isolate MD77773, read-out: MIC): 16 µg/mL; MIC (Streptococcus pneumoniae; isolate CO314937): 16 µg/mL

**Q.** Which Kp [1] does the source give for `COc1cc(C)c2c(Oc3cccc(C(F)(F)F)c3)c(OC)cc(NC(C)CCCN)c2n1` (centres unmarked) [Tafenoquine, N(4)-[2,6-Dimethoxy-4-methyl-5-[3-(trifluoromethyl)phenoxy]quinolin-8-yl]pentane-1,4-diamine] here?
**A.** 250

**Q.** And the “LTsscmaxhumans (maximum steady state lung tissue concentration)” value (SARS-CoV-2 [2]; approved prophylactic dose)?
**A.** 389 µM

**Q.** And the “LTcmaxrats (maximum lung tissue concentration)” value (SARS-CoV-2 [2]; plasma Cmax multiplied by 2.6 and 250)?
**A.** 23,296 ng/ml

**Q.** What about the MIC (Pneumocystis) of the same compound?
**A.** 5 µg/mL

**Q.** And the selectivity index (SARS-CoV-2 [3]; 4-day assay)?
**A.** 2.4

**Q.** And the EC50 (SARS-CoV-2 [3]; Severe acute respiratory syndrome coronavirus 2, Vero C1008, 96 h)?
**A.** 15.7 µM

**Q.** And the MIC ([4]; ATCC27294, 168 h, 7H9 with BSA, DPPC and cholesterol, 1 week, read-out: MIC)?
**A.** 9.4 µg/mL (≈ 20.3 µM)

**Q.** What about the MIC ([4]; ATCC27294, 168 h, 7H9 with casitone and DPPC, 1 week, read-out: MIC) of the same compound?
**A.** 4.7 µg/mL (≈ 10.1 µM)

**Q.** What about the MIC ([4]; ATCC27294, 168 h, 7H9 with glucose and BSA, 1 week, read-out: MIC) of the same compound?
**A.** 12.5 µg/mL (≈ 27 µM)

**Q.** And the MIC ([4]; ATCC27294, 168 h, 7H9 with glucose and casitone, 1 week, read-out: MIC)?
**A.** 4.7 µg/mL (≈ 10.1 µM)

**Q.** What about the MIC ([4]; ATCC27294, 336 h, 7H9 with BSA, DPPC and cholesterol, 2 weeks, read-out: MIC) of the same compound?
**A.** 12.5 µg/mL (≈ 27 µM)

**Q.** What about the MIC ([4]; ATCC27294, 336 h, 7H9 with casitone and DPPC, 2 weeks, read-out: MIC) of the same compound?
**A.** 6.25 µg/mL (≈ 13.5 µM)

**Q.** What about the MIC ([4]; ATCC27294, 336 h, 7H9 with glucose and BSA, 2 weeks, read-out: MIC) of the same compound?
**A.** 19 µg/mL (≈ 41 µM)

**Q.** What about the MIC ([4]; ATCC27294, 336 h, 7H9 with glucose and casitone, 2 weeks, read-out: MIC) of the same compound?
**A.** 6.25 µg/mL (≈ 13.5 µM)

**Q.** What about the MIC ([4]; ATCC27294, range over Examples 19-22, read-out: MIC against replicating forms of tuberculosis in vitro) of the same compound?
**A.** 4.7 to 18 µg/mL (≈ 10.1 to 38.8 µM)

**Q.** And the “mice moribund prior to the study endpoint” value ([5]; 10 mg/kg group)?
**A.** 2 of 21

**Q.** And the “mice moribund prior to the study endpoint” value ([5]; 20 mg/kg group)?
**A.** 4 of 21

**Q.** What about the tolerability ([5]; 2.5 and 5.0 mg/kg oral, daily) of the same compound?
**A.** well-tolerated

**Q.** And the “mouse weights on days 7/8 versus vehicle control” value ([5]; higher dose groups (10 and 20 mg/kg))?
**A.** these differences were not significant

— US12691107B2, “Methods for the treatment and prevention of lung infections caused by gram-positive bacteria, fungus, or virus by administration of tafenoquine” (priority 2020, dated 2026)
